Source: the NIST ThermoML archive (doi:10.1021/je100017w)
± gives the expanded uncertainty stated by the source.

Conditions: Liquid

CC[Si](OC)(OC)OC [ethyltrimethoxysilane]
Conditions | vapor or sublimation pressure [kPa]
306.35 K | 2.325 ± 0.26
311.45 K | 3.325 ± 0.26
315.95 K | 4.325 ± 0.26
319.8 K | 5.325 ± 0.27
324.15 K | 6.325 ± 0.29
328.65 K | 8.325 ± 0.32
334.15 K | 10.32 ± 0.36
338.95 K | 13.32 ± 0.42
343.65 K | 16.32 ± 0.47
347.65 K | 19.32 ± 0.54
351.35 K | 22.32 ± 0.6
354.55 K | 25.32 ± 0.67
357.45 K | 28.32 ± 0.74
360.15 K | 31.32 ± 0.81
362.65 K | 34.33 ± 0.87
364.95 K | 37.33 ± 0.94
367.55 K | 40.33 ± 1
369.65 K | 43.33 ± 1.1
371.05 K | 46.33 ± 1.1
374.05 K | 49.33 ± 1.2
375.85 K | 52.33 ± 1.3
376.45 K | 55.33 ± 1.6
379.85 K | 58.33 ± 1.4
381.15 K | 61.33 ± 1.5
382.55 K | 64.33 ± 1.6
383.15 K | 67.33 ± 1.6
384.85 K | 70.33 ± 1.7
385.85 K | 73.33 ± 1.8
386.65 K | 76.33 ± 1.9
387.55 K | 79.33 ± 1.9
388.95 K | 82.33 ± 2
389.95 K | 85.33 ± 2.1
390.95 K | 88.33 ± 2.1
392.95 K | 91.33 ± 2.2
393.05 K | 94.33 ± 2.3
393.75 K | 97.33 ± 2.4
393.95 K | 100.33 ± 2.3
397.15 K | 101.33 ± 2.3
